Key:
[1] = test system: beta-adrenergic receptors; assay: beta-adrenergic blocking action and its selectivity (cardiac, vascular smooth muscle, metabolic effects); assay type: in vivo; conditions: for relative specificity of beta-adrenergic antagonism, peripheral vasculature versus heart: effects of beta-adrenergic agonists; for level of activity: in vivo
[2] = anti-arrhythmic activity

Row | Compound | relative specificity of beta-adrenergic antagonism, peripheral vasculature versus heart [1] | level of activity [1] | selectivity of beta-adrenergic blocking action, cardiac and smooth muscle versus metabolic effects ([1]; versus anti-hyperglycemia and anti-hyperlactacidemia) | anti-arrhythmic activity [2] | anti-arrhythmic potency relative to procainamide ([2]; versus procainamide) | anti-arrhythmic potency relative to quinidine ([2]; versus quinidine)
1 | CC(C)NCC(O)c1ccc(NS(=O)(=O)N(C)C)cc1 (centres unmarked) [N,N-dimethyl-N'-[4-(1-hydroxy-2-isopropylaminoethyl)phenyl]sulfamide] | relative specificity for antagonism of the effects of beta-adrenergic agonists on the peripheral vasculature | high level of activity | relatively selective for cardiac and smooth muscle as opposed to the metabolic effects of anti-hyperglycemia and anti-hyperlactacidemia | potent anti-arrhythmic agent | 2.6 times | 1.3 times
2 | CC(C)NCC(O)c1ccc(NS(N)(=O)=O)cc1 (centres unmarked) [N-[4-(1-hydroxy-2-isopropylaminoethyl)phenyl]sulfamide] | relatively stronger antagonist of the direct cardiac stimulatory effects evoked by beta-adrenergic agonists than of the peripheral vascular smooth muscle | high level of activity | – | – | – | –

Source: patent US4044151A, “Sulfamidophenethanolamine therapeutic process” (Mead Johnson & Company, priority 1975, dated 1977)
